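48-hour exposure; five concentrations; linearly interpolated endpoints. Definition used: TGI = concentration required for complete inhibition of growth.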
Experiments:
Assay in all cases: growth of human tumour cells (NCI), 48 h
[1] = test system: EKVX NSCLC
[2] = test system: SF-268 CNS
[3] = test system: HOP-62 NSCLC
[4] = test system: KM12 colon
[5] = test system: HT29 colon
[6] = test system: RXF 393 renal
[7] = test system: UACC-62 melanoma
[8] = test system: 786-0 renal
[9] = test system: HCT-15 colon
[10] = test system: HOP-92 NSCLC
[11] = test system: MALME-3M melanoma
[12] = test system: NCI-H226 lung
[13] = test system: K-562 leukemia
[14] = test system: MOLT-4 leukemia
[15] = test system: SR leukemia
[16] = test system: NCI-H460 lung
[17] = test system: SNB-75 CNS
[18] = test system: RPMI-8226 leukemia
[19] = test system: MDA-N
[20] = test system: DMS 273 small cell lung

SMILES	TGI [1]	TGI [2]	TGI [3]	TGI [4]	TGI [5]	TGI [6]	TGI [7]	TGI [8]	TGI [9]	TGI [10]	TGI [11]	TGI [12]	TGI [13]	TGI [14]	TGI [15]	TGI [16]	TGI [17]	TGI [18]	TGI [19]	TGI [20]
O=[N+]([O-])c1c2nc3n(c2cc2c1nc1n2CCC1)CCC3	> 100 µM	> 100 µM	> 100 µM	> 100 µM	> 100 µM	> 100 µM	> 100 µM	> 100 µM	> 100 µM	> 100 µM	> 100 µM	> 100 µM	> 100 µM	> 100 µM	> 100 µM	> 100 µM	> 100 µM	> 100 µM	> 100 µM	
C=C(C(=O)OC)c1cc2ccccc2n1S(=O)(=O)c1ccccc1	37.7 µM	8.22 µM	11.1 µM	5.99 µM	24.9 µM	2.54 µM	15 µM	> 33.5 µM	5.37 µM	3.34 µM	5.72 µM	7.22 µM	> 100 µM	> 24 µM	> 100 µM	8.23 µM	14.5 µM	5.43 µM	14 µM	
O=C(N/N=C\c1ccccc1)Nc1cccc2ccccc12	> 100 µM	> 100 µM	37.2 µM	> 100 µM	69.9 µM	> 100 µM	> 100 µM	30.1 µM	> 100 µM	> 100 µM	> 100 µM	83.6 µM	> 100 µM	> 100 µM	> 100 µM	> 100 µM	> 100 µM	> 100 µM	> 100 µM	
CCOC(=O)C(C(=O)OCC)=C1NC2(c3ccccc3Nc3ccc(C)cc32)C(C(=O)OC)S1 (stereo not given)	80.9 µM	> 100 µM	> 100 µM	> 100 µM	> 100 µM	70.6 µM	> 100 µM	> 100 µM	> 100 µM	44.4 µM	63.5 µM	> 100 µM	> 100 µM	> 100 µM	> 100 µM	> 100 µM	62.4 µM	> 100 µM	> 100 µM	
O=C1c2ccccc2C(=O)c2c(O)ccc(O)c21	> 100 µM	> 100 µM	> 100 µM	> 100 µM	> 100 µM	> 100 µM	> 100 µM	> 100 µM	> 100 µM	> 100 µM	> 100 µM		> 100 µM	> 100 µM		> 100 µM	> 100 µM	> 100 µM		> 100 µM
CC(C)(C)c1ccc(C(C)(C)C)c(N2C(=O)C3ON=C(c4ccc([N+](=O)[O-])cc4)C3C2=O)c1 (stereo not given)	> 25 µM	> 25 µM	> 25 µM	> 25 µM	> 25 µM	> 25 µM	> 25 µM	9.71 µM	> 25 µM	> 25 µM	> 25 µM	> 25 µM	> 25 µM	> 25 µM	> 25 µM	> 25 µM	14.3 µM	> 25 µM	> 25 µM	
C#CC(O)/C=C/C(O)CCCC(O)CC#CC(O)C#CC(O)CCCC(O)/C=C/CCCC(=O)CCCCCCCCCCCCCCCC(O)C(O)C#CC(=O)O (stereo not given)	> 50 µM	> 50 µM	> 50 µM	> 50 µM	> 50 µM	> 50 µM	> 50 µM	> 50 µM	> 50 µM	> 50 µM	> 50 µM	> 50 µM	> 50 µM	> 50 µM	> 50 µM	> 50 µM	> 50 µM	> 50 µM	> 50 µM	
Clc1ncc(Cl)c(Cl)n1	30.3 µM	20.5 µM	39.4 µM	22.9 µM	3.02 µM	5.46 µM	4.42 µM	7.49 µM	5.99 µM	3.43 µM	3.75 µM	19 µM	4.08 µM	4.31 µM	5.62 µM	> 100 µM	9.98 µM	6.47 µM	11 µM	
CC12CCC(C(Nc3ccccn3)C1=O)C2(C)C (stereo not given)	> 100 µM	> 100 µM	> 100 µM	> 100 µM	> 100 µM	> 100 µM	> 100 µM	> 100 µM	> 100 µM	> 100 µM	> 100 µM	> 100 µM	> 100 µM	> 100 µM	> 100 µM	> 100 µM	> 100 µM	> 100 µM	> 100 µM	
N#Cc1nc(CCC(c2nc(C#N)c(N)o2)N2C(=O)c3ccccc3C2=O)oc1N (stereo not given)	> 100 µM	> 100 µM	> 100 µM	> 100 µM	> 100 µM	> 100 µM	> 100 µM	> 100 µM	> 100 µM	> 100 µM	> 100 µM	> 100 µM	> 100 µM	> 100 µM	> 100 µM	> 100 µM	> 100 µM	> 100 µM	> 100 µM	
O=C(OCCC12CC3CC(CC(C3)C1)C2)c1ccc(NCc2cc(O)ccc2O)cc1	4.88 µM	12.7 µM	13.4 µM	3.43 µM	10.6 µM	4.9 µM	3.61 µM	4.73 µM	3.53 µM	16.8 µM	3.81 µM	8.62 µM	10.6 µM	10.3 µM	4.43 µM	> 100 µM	2.99 µM	0.666 µM	3.38 µM	
COc1cc2c(cc1OCCCC(=O)Nc1cc(C(=O)NCCCN(C)C)n(C)n1)N=CC1CCCN1C2=O (stereo not given)	> 62 µM	> 50.4 µM	> 43.7 µM	> 100 µM	18.2 µM	> 75.6 µM		> 23.5 µM	> 21.5 µM	13.2 µM	14.2 µM	> 38.2 µM	3.8 µM	3.65 µM	0.59 µM	> 100 µM	22.3 µM	17.6 µM	73.2 µM	

From PubChem BioAssay (NCI)
